The target of experiment [1] is T1, recombinant membrane-bound human mPGEs-1 (Homo sapiens, UniProt O14684).
T1 sequence (O14684 1-152): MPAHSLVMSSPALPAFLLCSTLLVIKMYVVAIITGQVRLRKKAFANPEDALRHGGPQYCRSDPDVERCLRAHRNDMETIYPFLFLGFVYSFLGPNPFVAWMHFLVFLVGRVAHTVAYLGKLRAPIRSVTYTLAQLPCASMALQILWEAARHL
As to the kind of experiment: Thiobarbituric acid assay (TBA-MDA assay), inhibition of human mPGEs-1. Type of experiment: biochemical. The note with it: arithmetic mean values. The source says:
Malondialdehyde is a product of lipid peroxidation and reacts with thiobarbituric acid forming a red product that absorbs light at 535 nm (W. G. Niehaus, Jr and B. Samuelsson, Eur. J. Biochem 6, 126 (1968)) and is also fluorescent. The extinction coefficient of the TBA-MDA conjugate is 1.56×10^5 M^−1 cm^−1 (E. D. Wills. Biochem. J. 113, 315 (1969). The method used for detection of inhibition of mPGEs-1 is based on the detection of the amount of remaining PGH2. This method was described more than 20 years ago by Basevich et al (Bioorg. Khim. 1983, 9(5), 658-665).
The assay used was a modified variant and used citric acid instead of the TCA-TBA-HCl reagent described in the original assay. In this assay, recombinant membrane-bound human mPGEs-1 was incubated with PGH2. The reaction was stopped by adding citric acid to a final pH 3 and a large excess of iron(II) chloride (20 mM) to convert any remaining PGH2 into MDA and 12-HHT. TBA reagent was finally added (0.67%) and the samples were heated at 80° C. for 30 min. The fluorescence of the conjugate was measured at 485/545 nm.
The product of mPGEs-1 (PGE2) was not measured directly in this assay, but rather the remaining substrate (PGH2) indirectly by adding FeCl2 that converts PGH2 into MDA and 12-HHT. As a positive control, a known mPGEs-1 inhibitor, MK-886, was used and the inhibition afforded by the new inhibitors was compared with that obtained from MK-886.

In experiment [2] the test system is A549 lung carcinoma cells. As to the kind of experiment: A549 cell-assay, cellular PGE2 synthesis. The settings on record: Homo sapiens, PGE2 content by EIA, TNFalfa/IL-1beta stimulated cells, 10 μM arachidonic acid, arithmetic mean values. In kind it is cell-based. The method, then: Prostaglandin detection kits were purchased from Cayman Chemicals and used according to the instruction of the manufacturer.
A549 lung carcinoma cells, seeded at a density of 10,000 cells/well, were grown in 96 well tissue culture plates. TNFalfa (5 ng/mL) and IL-1beta (5 ng/mL) were added and the cells were incubated for 16 hours. Cells were washed in PBS and test compounds at the appropriate concentration in HBSS/0.1% BSA were added. After 30 minutes of incubation with test compounds, 10 μM arachidonic acid was added and cells were further incubated for 30 minutes. Supernatant was collected and analyzed for PGE2 content by EIA according to manufacturer's instructions.

Structures are written as SMILES.

Turning to `Cc1cc2c(cc1Cl)nc(N1CCC(C(=O)N[C@@H]3CCOC3)CC1)n2-c1cccc(C(F)(F)F)n1` [Example 1, (R)-1-(5-chloro-6-methyl-1-(6-(trifluoromethyl)pyridin-2-yl)-111-benzo[d]imidazol-2-yl)-N-(tetrahydrofuran-3-yl)piperidine-4-carboxamide], the half-maximal inhibitory concentration (IC50) in experiment [1] turned out to be 18 nM; in experiment [2], 28 nM.

For `Cc1cc2nc(N3CCC(C(=O)N[C@@H]4CCOC4)CC3)n(-c3cccc(C(F)(F)F)n3)c2cc1Cl` [Example 2, (R)-1-(6-chloro-5-methyl-1-(6-(trifluoromethyl)pyridin-2-yl)-1H-benzoimidazol-2-yl)-N-(tetrahydrofuran-3-yl)piperidine-4-carboxamide], the results for the IC50 in experiment [1] and in experiment [2] were 24 nM and 52 nM, respectively.

Turning to `Cc1cc2c(cc1Cl)nc(N1CCC(C(=O)N[C@@H]3CCOC3)CC1)n2-c1ccc(C(F)(F)F)cn1` [Example 3, (R)-1-(5-chloro-6-methyl-1-(5-(trifluoromethyl)pyridin-2-yl)-1H-benzo[d]imidazol-2-yl)-N-(tetrahydrofuran-3-yl)-piperidine-4-carboxamide], the half-inhibitory concentration (IC50) stood at 58 nM in experiment [1] and 85 nM in experiment [2].

In the case of `Cc1cc2nc(N3CCC(C(=O)N[C@@H]4CCOC4)CC3)n(-c3ccc(C(F)(F)F)cn3)c2cc1Cl` [Example 4, (R)-1-(6-chloro-5-methyl-1-(5-(trifluoromethyl)pyridin-2-yl)-1H-benzo[d]imidazol-2-yl)-N-(tetrahydrofuran-3-yl)-piperidine-4-carboxamide], the IC50 was 46 nM in experiment [1] and 122 nM in experiment [2].
